The values that follow come from patent publication US20170298081A1, “CONDENSED HETEROCYCLIC COMPOUND” (KASUMA PARTNERS INC., priority 2014, published 2017).

The structures appear in SMILES notation.

One data set deals with PCSK9 protein. The data set can be described thus: Influence of test compound on PCSK9 protein production amount in HepG2 cells (ELISA). Conditions: about 24 hours treatment, intracellular PCSK9 protein by ELISA, read-out: IC50 (50% PCSK9 production-suppressing concentration). It counts as cell-based, human. The procedure:
A test compound was added to culture supernatant of cells of the human liver cancer-derived cell strain, HepG2 cells, and intracellular amount of the PCSK9 protein was measured by the enzyme-linked immunosorbent assay (ELISA) after 24 hours. Specifically, the HepG2 cells were inoculated into wells of a 96-well microplate at a density of 5 to 7.5×10^4 cells/well, and the culture supernatant was exchanged with the MEM medium containing 10% lipoprotein deficient serum (LPDS) on the next day. After the cells were further cultured for one day, the culture supernatant was exchanged with the 10% LPDS-containing MEM medium containing a test compound, and the cells were treated with the compound for about 24 hours. The medium for treating the cells was prepared by dissolving the test compound in dimethyl sulfoxide (DMSO), and adding the resulting solution to the 10% LPDS-containing medium. The medium for treating cells for control was prepared by adding DMSO to the 10% LPDS-containing medium at the same final concentration. After completion of the treatment of the cells, a solubilization buffer (1% Nonidet P-40 in phosphate buffered saline) was added to the cells to extract proteins, and they were used as a sample.
The PCSK9 protein concentration and the total protein concentration in the sample were measured by using Human PCSK9 ELISA Kit produced by R&D Systems (Cat. No. DPC900), and BCA Protein Assay Reagent. Kit produced by Thermo Scientific (Cat. No. 23227) according to the protocols described in the attached manuals, respectively. The PCSK9 protein concentration in each sample was calculated as a concentration per unit mass of proteins. Then, by using PCSK9 production suppressing ratios at various concentrations obtained in accordance with the equation mentioned below, 50% PCSK9 production-suppressing concentration (IC50) of each compound was calculated with a linear regression equation.
Equation: PCSK9 production-suppressing ratio (%)=[(Average PCSK9 protein concentration in control group−Average PCSK9 protein concentration in test compound-treated group)/Average PCSK9 protein concentration in control group]×100
Background: ELISA stands for enzyme-linked immunosorbent assay.

Regarding `Nc1c(Cl)ccc2oc(-c3ccc(C(F)(F)F)cc3)nc12` [Example 35A, 4-Amino-5-chloro-2-(4-trifluoromethylphenyl)benzoxazole], the melting point (usually the temperature of the solid-liquid transition) lay within 132 to 134 °C.
On to `Nc1ccc(Cl)c2oc(-c3ccc(C(F)(F)F)cc3)nc12` [Example 35B, 4-Amino-7-chloro-2-(4-trifluoromethylphenyl)benzoxazole], for which the melting point lay in the range of 149 to 150 °C. Further, the IC50 with PCSK9 protein came out at 1.24 nM.
